According to ChEMBL document CHEMBL2396606, “Discovery of novel HCV inhibitors: synthesis and biological activity of 6-(indol-2-yl)pyridine-3-sulfonamides targeting hepatitis C virus NS4B” (Bioorg Med Chem Lett, 2013):

What was measured:
Assay type in all cases: ADME, organism-based
[1] = Cmax in Sprague-Dawley rat at 10 mg/kg, po; set-up: dose 10 mg/kg, route oral; settings: in vivo
[2] = Tmax in Sprague-Dawley rat at 10 mg/kg, po; set-up: dose 10 mg/kg, route oral; settings: in vivo
[3] = AUC (0 to 6 hrs) in Sprague-Dawley rat at 10 mg/kg, po; set-up: time < 6 hr, dose 10 mg/kg, route oral; settings: plasma
[4] = Volume of distribution at steady state in Sprague-Dawley rat at 10 mg/kg, po and 5 mg/kg, iv; settings: in vivo, read-out: Vdss
[5] = Oral bioavailability in Sprague-Dawley rat at 10 mg/kg; settings: in vivo
[6] = AUC (0 to infinity) in Sprague-Dawley rat at 10 mg/kg, po; set-up: time infinity, dose 10 mg/kg, route oral; settings: plasma
[7] = AUC (0 to infinity) in Sprague-Dawley rat at 5 mg/kg, iv; set-up: time infinity, dose 5 mg/kg, route intravenous; settings: plasma

Cmax [1] [ng/mL] | Tmax [2] [h] | AUC(0-t) at 6 h [3] [µM·h] | Vd [4] [L/kg] | bioavailability [5] [%] | AUC(0-inf) [6] [µM·h] | AUC(0-inf) [7] [µM·h] | Compound
53 | 2 | 0.579 |  |  |  |  | CC(C)NS(=O)(=O)c1ccc(-c2c(C#N)c3ccc(OC(F)F)cc3n2C2CCC2)nc1
348 | 3 | 3.42 | 4.7 | 62 | 16 | 13 | N#Cc1c(-c2ccc(S(=O)(=O)NC(CF)CF)cn2)n(C2CCC2)c2cc(OC(F)F)ccc12
759 | 2 | 6.2 |  |  |  |  | N#Cc1c(-c2ccc(S(=O)(=O)NC(CF)CF)cn2)n(C2CCC2)c2cc(C3CC3)ccc12
87 | 2 | 0.964 |  |  |  |  | CC(C)NS(=O)(=O)c1ccc(-c2c(C#N)c3ccc(C4CC4)cc3n2C2CCC2)nc1
